Laboratory results: patent US20240150372A1 (priority 2021, published 2024)
Where two headings read alike, the source gives them in different places.

Legend:
[1] = molecular target: rKOR (Rattus norvegicus (Rat), UniProt P34975); experiment: rKOR agonist assay (cAMP), rKOR-CHO; assay type: cell-based
Experimental: EC50 values and % efficacy of control agonist (KOR: U-50,488) maximal response at 1 μM for rKOR-CHO were obtained by screening the selected compounds via commercially available assay services.

[2] = tested on: C57BL/6J mice; experiment: Mouse tail-flick test; assay type: in vivo; conditions: s.c., cumulative doses 1-30 mg/kg, 30 min post injection
Experimental: C57BL/6J (8-12 weeks, 22-31 g) were purchased from the Jackson Laboratory (Bar Harbor, ME) and housed 5 mice per cage with food and water available ad libitum. Mice were maintained on a 12-hr light/dark cycle (lights on 7:00-19:00) and all testing was done in the light cycle. Temperature was kept constant at 22±2° C., and relative humidity was maintained at 50±5%. Mice were moved to the testing room 30 minutes before the experiment to allow for acclimation. The body weight of each mouse and base tail-flick value were recorded. Mice were administered a 1 mg/kg s.c. dose of compound solution (volume of injection 220-310 μL based on body weight). After injection mice were returned to the home cage and allowed to rest for 30 minutes. Thirty minutes post injection the tail-flick measurement was taken using thermal stimulation via IR on a Ugo Basile unit set to 52 PSU (ten seconds was used as a maximum latency to prevent tissue damage). Mice were then administered 3 mg/kg s.c. dose, allowed to rest for 30 minutes, followed by another tail-flick measurement. […] Tail-flick latencies for the different doses were expressed as percentage of maximum potential effect (% MPE) by subtracting the experimental value by the base tail flick value then dividing by the difference between the maximum possible latency (10 seconds) and the base tail-flick value and finally multiplying by 100. […]

[3] = molecular target: rVMAT2 (Rattus norvegicus (Rat), UniProt Q01827); experiment: rVMAT2 fluorometric transporter inhibition assay (FFN206 uptake, rVMAT2-HEK); assay type: cell-based
Experimental: (§1) Inhibition assays of transporters (hSERT and rVMAT2) were performed according to the following protocol.
(§2) Cell culture preparation and maintenance. Stably transfected hSERT-HEK and rVMAT2-HEK cellular cultures were maintained in Dulbecco's Minimal Essential Medium (DMEM) with GlutaMAX (Gibco) with the following additions: 10% (v/v) Fetal Bovine Serum (FBS, Atlanta Biologicals), 100 U/mL Penicillin (Gibco), and 10 μg/mL Streptomycin (Gibco). With regards to the former cell lineage, an additional ingredient, 500 μg/mL Geneticin (G418) (Gibco) was included to preserve the respective transgene.
(§3) hSERT and rVMAT2 fluorometric screening assays. For both hSERT and rVMAT2 screening experiments, respective singly transfected cells were seeded at a density of 0.09×10^6 cells/well in poly-D-Lysine (Alamanda Polymers, Inc.) coated white solid-bottom 96-well plates (Costar). Growth was permitted for approximately 44 hours in said aqueous media and at an incubation environment of 37° C. and 5% Carbon Dioxide. At the beginning of the experiment, the cellular growth solution was aspirated, and individual cells were rinsed with 150 μL of 1×Dulbecco's Phosphate Buffered Saline (PBS; HyClone). 63 μL of Experimental Media (consisting of the following contents: DMEM without phenol red but with 4.5 g/L of D-Glucose (Gibco), 1% (v/v) FBS (Atlanta Biologicals), 100 U/mL Penicillin (Gibco), and 10 μg/mL Streptomycin (Gibco)) with 2×tiered concentrations of inhibitor (or DMSO, the vehicle of these experiments) were added to the respective wells. […] A final solution of 120 μL of PBS is finally added to all corresponding wells for cell maintenance before undergoing fluorescence uptake reading by a BioTek H1MF plate reader. […]
(§4) Data analysis. […] Respective inhibitor values were first subtracted from vehicular values to quantify the respective fluorescence uptake. This metric was then analyzed using the dose-response-inhibitor nonlinear curve fitting model ([inhibitor] vs response (three parameters)) as supplied by GraphPad Prism 8 software. […]

[4] = molecular target: hSERT (Homo sapiens (Human), UniProt P31645); experiment: hSERT fluorometric transporter inhibition assay (APP+ uptake, hSERT-HEK); assay type: cell-based
Experimental: as §1, §2, §3, §4

[5] = tested on: adult human primary ventricular myocytes; experiment: Pro-arrhythmia assay in adult human primary ventricular cardiomyocytes (contractility); assay type: cell-based; conditions: 0.1-10 μM, 1 Hz pacing
Experimental: Cardiac adverse effects of iboga alkaloids and related analogs was assessed via a commercially available assay, procedure reported in (Nguyen, N. et al. 2017; Page, G. et al. 2016) (FIG. 1).
Isolation of adult human primary ventricular myocytes. Adult human primary ventricular myocytes were isolated from ethically consented donor hearts. A proprietary protocol was employed to enzymatically digest hearts and isolate cardiomyocytes.
Contractility recordings procedures. Cardiomyocytes were placed in a perfusion chamber mounted on the stage of inverted Motic AE31E (IonOptix) or Olympus IX83P1ZF microscopes (MyoBlazer) and continuously perfused at approximately 2 ml/min with recording buffer heated to 35±1° C. using an in-line heater from Warner Instruments (IonOptix & MyoBlazer) and allowed to equilibrate for 5 minutes under constant perfusion. The cells were field stimulated with supra-threshold voltage at a 1 Hz pacing frequency, with a bipolar pulse of 3 ms duration, using a pair of platinum wires placed on opposite sides of the chamber connected to a MyoPacer stimulator. […] The IonWizard software or MyoBLAZER Analysis software analyzed the periodicity in the optical density of these bands by means of a fast Fourier transform algorithm.
Pro-arrhythmia markers. […] STV (STV=Σ|CAn+1−CAn|(20×√2)^−1) was calculated with the last 20 transients of each control and test article concentration period. […]

[6] = tested on: human cardiomyocytes; conditions: Rubi, L. et al 2017; cited from earlier work
[7] = molecular target: human ethera-go-go-related gene (hERG) potassium channels (Homo sapiens (Human), UniProt Q12809); conditions: Alper, K. et al 2016; cited from earlier work
[8] = tested on: male F344 rats; experiment: Morphine self-administration, repeated dosing regimen; assay type: in vivo, rat
[9] = tested on: male F344 rats; experiment: Morphine intravenous self-administration, single administration; assay type: in vivo, rat; conditions: 40 mg/kg IP

In the case of CCC1CC2C[C@H]3c4oc5ccc(O)cc5c4CCN2C13 (stereo partly drawn) [(16R)-Oxa-noribogaine], the “% efficacy of control agonist (KOR: U-50,488) maximal response at 1 μM” value ([1]; cAMP) is reported as “(96%)”, the EC50 ([1]; cAMP, read-out: rKOR (EC50)) is reported as < 10 nM and the “ED50, analgesia in tail-flick test” value [2] is reported as 2.8 mg/kg. The IC50 ([3]; ± SEM, read-out: rVMAT2 (IC50)) was 140 ± 30 nM and the IC50 ([4]; ± SEM, read-out: hSERT (IC50)) was 450 ± 70 nM.

For CCC1CC2C[C@@H]3c4oc5ccc(O)cc5c4CCN2C13 (stereo partly drawn) [(16S)-Oxa-noribogaine], the “% efficacy of control agonist (KOR: U-50,488) maximal response at 1 μM” value ([1]; cAMP) was “(25%)”, the EC50 ([1]; cAMP, read-out: rKOR (EC50)) was ~300 nM and the “ED50, analgesia in tail-flick test” value [2] was > 30 mg/kg. The IC50 ([3]; ± SEM, read-out: rVMAT2 (IC50)) was 2800 ± 550 nM and the IC50 ([4]; ± SEM, read-out: hSERT (IC50)) was 2900 ± 680 nM.

For CC[C@H]1C[C@H]2C[C@H]3c4[nH]c5ccc(O)cc5c4CCN(C2)C13 [noribogaine], the pro-arrhythmia effects [5] is given as “exhibits pro-arrhytmia effects”, the action potential repolarization [6] is given as “significantly delayed action potential repolarization” and the “hERG block IC50” value [7] is given as “low micromolar”.

In the case of CCC1CC2CC3c4oc5ccc(O)cc5c4CCN(C2)C13 (centres unmarked) [oxa-noribogaine], the EC50 [1] is reported as < 10 nM, the Emax ([1]; cAMP, read-out: % efficacy of control agonist (KOR: U-50,488) maximal response at 1 μM) is reported as 102% and the “morphine intake in the following three sessions” value ([8]; after first 10 mg/kg) is reported as “approximately 40 % of baseline levels”. For the same compound, the “morphine intake recovered after administration” value ([8]; after first 40 mg/kg) was “approximately 60 % of VEH levels”, the “morphine intake at the end of the dosing regimen” value ([8]; after last 5 mg/kg) was “approximately 8 % of baseline levels” and the “morphine intake in the following session” value ([8]; after second 10 mg/kg) was “approximately 25 % of baseline levels”. For the same compound, the “morphine intake recovered over following three days” value ([8]; after second 40 mg/kg) was “approximately 50%”, the “morphine intake eighteen days following the last administration” value ([8]; eighteen days after last 5 mg/kg) was 40% and the “morphine intake in the session following administration” value ([8]; first 10 mg/kg) was “approximately 4 infusions”. For the same compound, the pro-arrhythmia effects [5] was “no pro-arrhytmia effects even at high concentrations”, the IC50 [3] was 670 ± 110 nM and the IC50 [4] was 900 ± 120 nM.

In the case of epi-oxa-noribogaine, the “morphine intake, duration of reduction” value [9] is reported as “significantly decreased morphine self-administration for three sessions”.
